# US12098148B2, “Therapeutic compounds” (C4X Discovery Limited, priority 2018, dated 2024)
# Tests used:
# [1] = tested on: NQO1 mRNA in BEAS-2B cells; test: Beas2B NQO1 mRNA cell based assay; parameters: species or system human; conditions: Homo sapiens, BEAS-2B, 24 h, 24 h compound treatment, increase in NQO1 mRNA vs vehicle (0.1% DMSO), read-out: EC50
# Procedure, shortened: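 Relative NQO1 transcript level derived by ΔΔCT with human β-actin as internal control, using direct-lysate one-step RT-qPCR. Cells were BEAS-2B, plated overnight then treated with compound for 24 h.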
# [2] = target: human KEAP1 (N-term, residues 321-609) (Homo sapiens, UniProt Q14145); test: biochemical;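 note: fluorescence polarization competition assay of Kelch domain binding to NRF2, 12-point 1:3 dilution series from 10 µM, read after 1 h at room temperature, floor 10 nM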
# Chain of human KEAP1 (N-term, residues 321-609) (Q14145 321-609): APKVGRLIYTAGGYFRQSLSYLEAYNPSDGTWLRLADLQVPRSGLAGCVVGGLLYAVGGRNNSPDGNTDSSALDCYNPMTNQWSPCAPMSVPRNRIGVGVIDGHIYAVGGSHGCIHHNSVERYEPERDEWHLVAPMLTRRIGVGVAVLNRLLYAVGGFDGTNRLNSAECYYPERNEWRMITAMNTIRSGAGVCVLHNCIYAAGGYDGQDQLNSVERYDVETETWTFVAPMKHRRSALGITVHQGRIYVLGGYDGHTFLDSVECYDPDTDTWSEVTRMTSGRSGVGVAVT
Compound,IC50 [2],EC50 [1]
"CC(C)n1cc(COc2ccc(Cl)c3c2[C@@H](CN2Cc4ccccc4C2=O)N(C(=O)[C@@H]2CCCC[C@@H]2C(=O)O)CC3)nn1 [Example 57, (1S,2R)-2-((S)-5-chloro-8-((1-isopropyl-1H-1,2,3-triazol-4-yl)methoxy)-1-((1-oxoisoindolin-2-yl)methyl)-1,2,3,4-tetrahydroisoquinoline-2-carbonyl)cyclohexane-1-carboxylic acid]",6.6 nM,2.7 nM
"CC(C)n1cc(COc2ccc(Br)c3c2[C@@H](CN2C[C@H](C)CC2=O)N(C(=O)[C@@H]2CCCC[C@@H]2C(=O)O)CC3)nn1 [Example 75, (1S,2R)-2-((S)-5-Bromo-8-((1-isopropyl-1H-1,2,3-triazol-4-yl)methoxy)-1-(((R)-4-methyl-2-oxopyrrolidin-1-yl)methyl)-1,2,3,4-tetrahydroisoquinoline-2-carbonyl) cyclohexane-1-carboxylic acid]",6.5 nM,8.3 nM
"CCn1nnc(COc2ccc(Cl)c3c2[C@@H](CN2CCCC2=O)N(C(=O)[C@@H]2CCCC[C@@H]2C(=O)O)CC3)c1C(F)F [Example 79, (1S,2R)-2-((S)-5-Chloro-8-((5-(difluoromethyl)-1-ethyl-1H-1,2,3-triazol-4-yl)methoxy)-1-((2-oxopyrrolidin-1-yl)methyl)-1,2,3,4-tetrahydroisoquinoline-2-carbonyl)cyclohexane-1-carboxylic acid]",6.7 nM,1.2 nM
"CCn1cnnc1COc1ccc(Br)c2c1[C@@H](CN1Cc3ccccc3C1=O)N(C(=O)[C@@H]1CCCC[C@@H]1C(=O)O)CC2 [Example 42, (1S,2R)-2-((S)-5-bromo-8-((4-ethyl-4H-1,2,4-triazol-3-yl)methoxy)-1-((1-oxoisoindolin-2-yl)methyl)-1,2,3,4-tetrahydroisoquinoline-2-carbonyl)cyclohexane-1-carboxylic acid]",7.9 nM,18 nM
"CC(C)n1cc(COc2ccc(C(F)(F)F)c3c2[C@@H](CN2Cc4ccccc4C2=O)N(C(=O)[C@@H]2CCCC[C@@H]2C(=O)O)CC3)nn1 [Example 62, (1S,2R)-2-((S)-8-((1-isopropyl-1H-1,2,3-triazol-4-yl)methoxy)-1-((1-oxoisoindolin-2-yl)methyl)-5-(trifluoromethyl)-1,2,3,4-tetrahydroisoquinoline-2-carbonyl)cyclohexane-1-carboxylic acid]",14 nM,120 nM
"CC(=O)N1CC[C@H](Oc2ccc(Br)c3c2[C@@H](CN2C(=O)c4ccccc4C2=O)N(C(=O)[C@@H]2CCCC[C@@H]2C(=O)O)CC3)C1 [Example 11, (1S,2R)-2-((S)-8-(((S)-1-Acetylpyrrolidin-3-yl)oxy)-5-bromo-1-((1,3-dioxoisoindolin-2-yl)methyl)-1,2,3,4-tetrahydroisoquinoline-2-carbonyl)cyclohexane-1-carboxylic acid]",5.1 nM,3.5 nM
"O=C(O)[C@H]1CCCC[C@H]1C(=O)N1CCc2c(Cl)ccc(OCc3ccccn3)c2[C@H]1CN1CCCC1=O [Example 69, (1S,2R)-2-((S)-5-chloro-1-((2-oxopyrrolidin-1-yl)methyl)-8-(pyridin-2-ylmethoxy)-1,2,3,4-tetrahydroisoquinoline-2-carbonyl) cyclohexane-1-carboxylic acid]",6.9 nM,140 nM
"Cn1nnc2cc(COc3ccc(Br)c4c3[C@@H](CN3Cc5ccccc5C3=O)N(C(=O)[C@@H]3CCCC[C@@H]3C(=O)O)CC4)ccc21 [Example 38, (1S,2R)-2-((S)-5-bromo-8-((1-methyl-1H-benzo[d][1,2,3]triazol-5-yl)methoxy)-1-((1-oxoisoindolin-2-yl)methyl)-1,2,3,4-tetrahydroisoquinoline-2-carbonyl)cyclohexane-1-carboxylic acid]",9.3 nM,17 nM

# Now from value to molecule, other results behind:
IC50 [2],Compound,EC50 [1]
7.2 nM,"Cn1nnc(COc2ccc(Cl)c3c2[C@@H](CN2CC(C)(C)CC2=O)N(C(=O)[C@@H]2CCCC[C@]2(C)C(=O)O)CC3)c1C(F)F [Example 152, (1S,2R)-2-((S)-5-chloro-8-((5-(difluoromethyl)-1-methyl-1H-1,2,3-triazol-4-yl)methoxy)-1-((4,4-dimethyl-2-oxopyrrolidin-1-yl)methyl)-1,2,3,4-tetrahydroisoquinoline-2-carbonyl)-1-methylcyclohexane-1-carboxylic acid]",10 nM
6.6 nM,"Cc1c(COc2ccc(Cl)c3c2[C@@H](CN2CCCC2=O)N(C(=O)[C@@H]2CCCC[C@]2(C)C(=O)O)CC3)nnn1C [Example 107, (1S,2R)-2-((S)-5-Chloro-8-((1,5-dimethyl-1H-1,2,3-triazol-4-yl)methoxy)-1-((2-oxopyrrolidin-1-yl)methyl)-1,2,3,4-tetrahydroisoquinoline-2-carbonyl)-1-methylcyclohexane-1-carboxylic acid]",0.35 nM
5.1 nM,"C[C@]1(C(=O)O)CCCC[C@H]1C(=O)N1CCc2c(Cl)ccc(OCc3nnn4c3CCC4)c2[C@H]1CN1CC2(CC2)CC1=O [Example 181, (1S,2R)-2-((S)-5-chloro-8-((5,6-dihydro-4H-pyrrolo[1,2-c][1,2,3]triazol-3-yl)methoxy)-1-((6-oxo-5-azaspiro [2.4]heptan-5-yl)methyl)-1,2,3,4-tetrahydroisoquinoline-2-carbonyl)-1-methylcyclohexane-1-carboxylic acid]",0.69 nM
5 nM,"Cn1nnc(COc2ccc(Cl)c3c2[C@@H](CN2CC4(CC4)CC2=O)N(C(=O)[C@@H]2CCCC[C@]2(C)C(=O)O)CC3)c1C(F)(F)F [Example 150, (1S,2R)-2-((S)-5-chloro-8-((1-methyl-5-(trifluoromethyl)-1H-1,2,3-triazol-4-yl)methoxy)-1-((6-oxo-5-azaspiro [2.4]heptan-5-yl)methyl)-1,2,3,4-tetrahydroisoquinoline-2-carbonyl)-1-methylcyclohexane-1-carboxylic acid]",0.97 nM
9.7 nM,"CC(C)n1nnc(COc2ccc(Cl)c3c2[C@@H](CN2CCCC2=O)N(C(=O)[C@@H]2CCC[C@]2(C)C(=O)O)CC3)c1C(F)F [Example 122, (1S,2R)-2-((S)-5-chloro-8-((5-(difluoromethyl)-1-isopropyl-1H-1,2,3-triazol-4-yl)methoxy)-1-((2-oxopyrrolidin-1-yl)methyl)-1,2,3,4-tetrahydroisoquinoline-2-carbonyl)-1-methylcyclopentane-1-carboxylic acid]",86 nM
5.2 nM,"Cc1c(COc2c(F)cc(Cl)c3c2[C@@H](CN2CC4(CC4)CC2=O)N(C(=O)[C@@H]2CCCC[C@]2(C)C(=O)O)CC3)nnn1C [Example 143, (1S,2R)-2-((S)-5-chloro-8-((1,5-dimethyl-1H-1,2,3-triazol-4-yl)methoxy)-7-fluoro-1-((6-oxo-5-azaspiro[2.4]heptan-5-yl)methyl)-1,2,3,4-tetrahydroisoquinoline-2-carbonyl)-1-methylcyclohexane-1-carboxylic acid]",0.05 nM
9.1 nM,"Cn1nnc2cc(COc3ccc(Cl)c4c3[C@@H](CN3CCCC3=O)N(C(=O)[C@@H]3CCCC[C@@H]3C(=O)O)CC4)ccc21 [Example 90, (1S,2R)-2-((S)-5-Chloro-8-((1-methyl-1H-benzo [d][1,2,3]triazol-5-yl)methoxy)-1-((2-oxopyrrolidin-1-yl)methyl)-1,2,3,4-tetrahydroisoquinoline-2-carbonyl)cyclohexane-1-carboxylic acid]",8.1 nM
6.8 nM,"Cn1cccc(COc2ccc(Cl)c3c2[C@@H](CN2CC4(CC4)CC2=O)N(C(=O)[C@@H]2CCCC[C@]2(C)C(=O)O)CC3)c1=O [Example 211, (1S,2R)-2-((S)-5-chloro-8-((1-methyl-2-oxo-1,2-dihydropyridin-3-yl)methoxy)-1-((6-oxo-5-azaspiro[2.4]heptan-5-yl)methyl)-1,2,3,4-tetrahydroisoquinoline-2-carbonyl)-1-methylcyclohexane-1-carboxylic acid]",43 nM
6 nM,"C[C@]1(C(=O)O)CCCC[C@H]1C(=O)N1CCc2c(Cl)ccc(O[C@H]3CCN(S(C)(=O)=O)C3)c2[C@H]1CN1CC2(CC2)CC1=O [Example 187, (1S,2R)-2-((S)-5-chloro-8-(((S)-1-(methylsulfonyl)pyrrolidin-3-yl)oxy)-1-((6-oxo-5-azaspiro[2.4]heptan-5-yl)methyl)-1,2,3,4-tetrahydroisoquinoline-2-carbonyl)-1-methylcyclohexane-1-carboxylic acid]",43 nM
5.5 nM,"Cn1cc(COc2ccc(Cl)c3c2[C@@H](CN2CCCC2=O)N(C(=O)[C@@H]2CCCC[C@@H]2C(=O)O)CC3)nn1 [Example 104, (1S,2R)-2-((S)-5-Chloro-8-((1-methyl-1H-1,2,3-triazol-4-yl)methoxy)-1-((2-oxopyrrolidin-1-yl)methyl)-1,2,3,4-tetrahydroisoquinoline-2-carbonyl)cyclohexane-1-carboxylic acid]",27 nM
7 nM,"COCc1c(COc2ccc(Cl)c3c2[C@@H](CN2CCCC2=O)N(C(=O)[C@@H]2CCCC[C@]2(C)C(=O)O)CC3)nnn1C [Example 127, (1S,2R)-2-((S)-5-chloro-8-((5-(methoxymethyl)-1-methyl-1H-1,2,3-triazol-4-yl)methoxy)-1-((2-oxopyrrolidin-1-yl)methyl)-1,2,3,4-tetrahydroisoquinoline-2-carbonyl)-1-methylcyclohexane-1-carboxylic acid]",2.6 nM
2.9 nM,"Cn1c(COc2ccc(Cl)c3c2[C@@H](CN2CC4(CC4)CC2=O)N(C(=O)[C@@H]2CCCC[C@]2(C)C(=O)O)CC3)nnc1C1CC1 [Example 184, (1S,2R)-2-((S)-5-chloro-8-((5-cyclopropyl-4-methyl-4H-1,2,4-triazol-3-yl)methoxy)-1-((6-oxo-5-azaspiro[2.4]heptan-5-yl)methyl)-1,2,3,4-tetrahydroisoquinoline-2-carbonyl)-1-methylcyclohexane-1-carboxylic acid]",5.6 nM
